Test results reported in US20240108006A1, “PESTICIDALLY ACTIVE HETEROAROMATIC COMPOUNDS” (SYNGENTA CROP PROTECTION AG, priority 2021, published 2024).

Tests used:
Format in all cases: in vivo
Spodoptera littoralis = test: Example B9: Spodoptera littoralis (Egyptian cotton leaf worm), cotton leaf discs, L1 larvae; settings: foliar, 72 h, application rate of 200 ppm, 3 days after infestation, read-out: control in at least one of the three categories (mortality, anti-feedant effect, or growth inhibition)
Description: Example B9: Spodoptera littoralis (Egyptian Cotton Leaf Worm)
Cotton leaf discs were placed onto agar in 24-well microtiter plates and sprayed with aqueous test solutions prepared from 10,000 ppm DMSO stock solutions. After drying the leaf discs were infested with five L1 larvae. The samples were assessed for mortality, anti-feeding effect, and growth inhibition in comparison to untreated samples 3 days after infestation. Control of Spodoptera littoralis by a test sample is given when at least one of the categories mortality, anti-feedant effect, and growth inhibition is higher than the untreated sample.

Plutella xylostella = test: Example B8: Plutella xylostella (diamond back moth), artificial diet 24-well, eggs; settings: 192 h, application rate of 200 ppm, 8 days after infestation, read-out: effect in at least one of the two categories (mortality or growth inhibition)
Description: Example B8: Plutella xylostella (Diamond Back Moth)
24-well microtiter plates with artificial diet were treated with aqueous test solutions prepared from 10,000 ppm DMSO stock solutions by pipetting. After drying, Plutella eggs were pipetted through a plastic stencil onto a gel blotting paper and the plate was closed with it. The samples were assessed for mortality and growth inhibition in comparison to untreated samples 8 days after infestation.
The following compounds gave an effect of at least 80% in at least one of the two categories (mortality or growth inhibition) at an application rate of 200 ppm: […]

Chilo suppressalis = test: Example B1: Chilo suppressalis (striped rice stemborer), artificial diet, L2 larvae; settings: 144 h, application rate of 200 ppm, 6 days after infestation, read-out: control in at least one of the three categories (mortality, anti-feedant effect, or growth inhibition)
Description: Example B1: Chilo suppressalis (Striped Rice Stemborer)
24-well microtiter plates with artificial diet were treated with aqueous test solutions prepared from 10,000 ppm DMSO stock solutions by pipetting. After drying, the plates were infested with L2 larvae (6-8 per well). The samples were assessed for mortality, anti-feeding effect, and growth inhibition in comparison to untreated samples 6 days after infestation. Control of Chilo suppressalis by a test sample is given when at least one of the categories mortality, anti-feedant effect, and growth inhibition is higher than the untreated sample.

Compound	percent control (mortality, anti-feedant effect or growth inhibition) at 200 ppm (Spodoptera littoralis)	percent effect (mortality or growth inhibition) at 200 ppm (Plutella xylostella)	percent control (mortality, anti-feedant effect or growth inhibition) at 200 ppm (Chilo suppressalis)
CC(NC(=S)Nc1cc(C(F)(F)F)cc(C(F)(F)F)c1)c1ncnn1-c1ncccn1 (centres unmarked) [Example P3, 1-[3,5-bis(trifluoromethyl)phenyl]-3-[1-(2-pyrimidin-2-yl-1,2,4-triazol-3-yl)ethyl]thiourea]	≥ 80%		
C[C@H](NC(=O)Nc1ccc(Cl)c(C(F)(F)F)c1)c1nccnc1-c1ccc(C#N)cn1 [Example P7, 1-[4-chloro-3-(trifluoromethyl)phenyl]-3-[(1S)-1-[3-(5-cyano-2-pyridyl)pyrazin-2-yl]ethyl]urea]	≥ 80%	≥ 80%	≥ 80%
C[C@H](NC(=O)Nc1ccc(Cl)c(C(F)(F)F)c1)c1nccnc1-c1ncccn1 [Example P11, 1-[4-chloro-3-(trifluoromethyl)phenyl]-3-[(1S)-1-(3-pyrimidin-2-ylpyrazin-2-yl)ethyl]urea]	≥ 80%	≥ 80%	
C[C@H](NC(=S)Nc1ccc(Cl)c(C(F)(F)F)c1)c1ncnn1-c1ncccn1 [Example P15, 1-[4-chloro-3-(trifluoromethyl)phenyl]-3-[(1S)-1-(2-pyrimidin-2-yl-1,2,4-triazol-3-yl)ethyl]thiourea]	≥ 80%		≥ 80%
C[C@H](NC(=O)Nc1cc(Cl)c(Oc2ncc(C(F)(F)F)cc2Cl)c(Cl)c1)c1ncnn1-c1ncccn1 [Example P26, 1-[3,5-dichloro-4-[[3-chloro-5-(trifluoromethyl)-2-pyridyl]oxy]phenyl]-3-[(1S)-1-(2-pyrimidin-2-yl-1,2,4-triazol-3-yl)ethyl]urea]	≥ 80%	≥ 80%	
C[C@H](NC(=O)Nc1cc(C(F)(F)F)ccc1Br)c1ncnn1-c1ncccn1 [Example P70, 1-[2-bromo-5-(trifluoromethyl)phenyl]-3-[(1S)-1-(2-pyrimidin-2-yl-1,2,4-triazol-3-yl)ethyl]urea]	≥ 80%	≥ 80%	≥ 80%
C[C@H](NC(=O)Nc1ccc(Br)cc1I)c1ncnn1-c1ncccn1 [Example P76, 1-(4-bromo-2-iodo-phenyl)-3-[(1S)-1-(2-pyrimidin-2-yl-1,2,4-triazol-3-yl)ethyl]urea]	≥ 80%	≥ 80%	≥ 80%
C[C@H](NC(=O)Nc1ccc(Cl)c(Cl)c1Cl)c1ncnn1-c1ncccn1 [Example P95, 1-[(1S)-1-(2-pyrimidin-2-yl-1,2,4-triazol-3-yl)ethyl]-3-(2,3,4-trichlorophenyl)urea]	≥ 80%		
C[C@H](NC(=O)N1CCc2cc(Br)ccc21)c1ncnn1-c1ncccn1 [Example P102, 5-bromo-N-[(1S)-1-(2-pyrimidin-2-yl-1,2,4-triazol-3-yl)ethyl]indoline-1-carboxamide]	≥ 80%		
C[C@H](NC(=O)Nc1ccc(Cl)c(C(F)(F)F)c1)c1ncnn1-c1ncccn1 [Example P131, 1-[4-chloro-3-(trifluoromethyl)phenyl]-3-[(1S)-1-(2-pyrimidin-2-yl-1,2,4-triazol-3-yl)ethyl]urea]	≥ 80%		≥ 80%
Cc1cc(Cl)c(Cl)cc1NC(=O)N[C@@H](C)c1ncnn1-c1ncccn1 [Example P191, 1-(4,5-dichloro-2-methyl-phenyl)-3-[(1S)-1-(2-pyrimidin-2-yl-1,2,4-triazol-3-yl)ethyl]urea]	≥ 80%	≥ 80%	
C[C@H](NC(=O)Nc1cc(Cl)c(OC(F)(F)C(F)Br)cc1Cl)c1ncnn1-c1ncccn1 (stereo partly drawn) [Example P197, 1-[4-(2-bromo-1,1,2-trifluoro-ethoxy)-2,5-dichloro-phenyl]-3-[(1S)-1-(2-pyrimidin-2-yl-1,2,4-triazol-3-yl)ethyl]urea]	≥ 80%		
C#CCOc1cc(NC(=O)N[C@@H](C)c2ncnn2-c2ncccn2)c(F)cc1Br [Example P203, 1-(4-bromo-2-fluoro-5-prop-2-ynoxy-phenyl)-3-[(1S)-1-(2-pyrimidin-2-yl-1,2,4-triazol-3-yl)ethyl]urea]	≥ 80%	≥ 80%	
C[C@H](NC(=O)Nc1cc(Oc2ccc(C(F)(F)F)cn2)c(Cl)cc1Cl)c1ncnn1-c1ncccn1 [Example P209, 1-[2,4-dichloro-5-[[5-(trifluoromethyl)-2-pyridyl]oxy]phenyl]-3-[(1S)-1-(2-pyrimidin-2-yl-1,2,4-triazol-3-yl)ethyl]urea]	≥ 80%	≥ 80%	
CC(NC(=O)Nc1cnc(Br)cc1Br)c1nccnc1-c1ncccn1 (centres unmarked) [Example P242, 1-(4,6-dibromo-3-pyridyl)-3-[1-(3-pyrimidin-2-ylpyrazin-2-yl)ethyl]urea]	≥ 80%		≥ 80%
C[C@H](NC(=O)Nc1ccc(Br)cc1OC(F)F)c1ncnn1-c1ccc(C#N)cn1 [Example P254, 1-[4-bromo-2-(difluoromethoxy)phenyl]-3-[(1S)-1-[2-(5-cyano-2-pyridyl)-1,2,4-triazol-3-yl]ethyl]urea]	≥ 80%	≥ 80%	
CC(NC(=O)Nc1cnc(Br)cc1Br)c1nccnc1-n1nccn1 (centres unmarked) [Example P262, 1-(4,6-dibromo-3-pyridyl)-3-[1-[3-(triazol-2-yl)pyrazin-2-yl]ethyl]urea]	≥ 80%		
C[C@H](NC(=O)Nc1cc(Br)c(F)cc1F)c1ncnn1-c1ncccn1 [Example P343, 1-(5-bromo-2,4-difluoro-phenyl)-3-[(1S)-1-(2-pyrimidin-2-yl-1,2,4-triazol-3-yl)ethyl]urea]	≥ 80%		≥ 80%
C[C@H](NC(=O)Nc1cc(Br)c(C(F)(F)F)cc1F)c1ncnn1-c1ncccn1 [Example P350, 1-[5-bromo-2-fluoro-4-(trifluoromethyl)phenyl]-3-[(1S)-1-(2-pyrimidin-2-yl-1,2,4-triazol-3-yl)ethyl]urea]	≥ 80%		≥ 80%
COC(=O)c1cc2c(cc1NC(=O)N[C@@H](C)c1ncnn1-c1ncccn1)OC(F)(F)O2 [Example P369, methyl 2,2-difluoro-6-[[(1S)-1-(2-pyrimidin-2-yl-1,2,4-triazol-3-yl)ethyl]carbamoylamino]-1,3-benzodioxole-5-carboxylate]	≥ 80%	≥ 80%	
C[C@H](NC(=O)Nc1cc2c(cc1Cl)OCO2)c1ncnn1-c1ncccn1 [Example P370, 1-(6-chloro-1,3-benzodioxol-5-yl)-3-[(1S)-1-(2-pyrimidin-2-yl-1,2,4-triazol-3-yl)ethyl]urea]	≥ 80%		≥ 80%
C[C@H](NC(=O)Nc1cc(Cl)c(Br)cc1F)c1ncnn1-c1ncccn1 [Example P373, 1-(4-bromo-5-chloro-2-fluoro-phenyl)-3-[(1S)-1-(2-pyrimidin-2-yl-1,2,4-triazol-3-yl)ethyl]urea]	≥ 80%		≥ 80%
C[C@H](NC(=O)Nc1cc(F)c(Cl)cc1I)c1ncnn1-c1ncccn1 [Example P376, 1-(4-chloro-5-fluoro-2-iodo-phenyl)-3-[(1S)-1-(2-pyrimidin-2-yl-1,2,4-triazol-3-yl)ethyl]urea]		≥ 80%	≥ 80%
COc1cc(F)c(F)cc1NC(=O)N[C@@H](C)c1ncnn1-c1ncccn1 [Example P383, 1-(4,5-difluoro-2-methoxy-phenyl)-3-[(1S)-1-(2-pyrimidin-2-yl-1,2,4-triazol-3-yl)ethyl]urea]	≥ 80%		≥ 80%
COc1cc(OC)c(NC(=O)N[C@@H](C)c2ncnn2-c2ncccn2)cc1Cl [Example P387, 1-(5-chloro-2,4-dimethoxy-phenyl)-3-[(1S)-1-(2-pyrimidin-2-yl-1,2,4-triazol-3-yl)ethyl]urea]	≥ 80%		
